Test results from PubChem BioAssay (NCI).
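Five compound concentrations were applied to cells in 96-well plates for 48 hours; endpoints were derived by simple linear interpolation of the resulting dose-response curve. Definition used: TGI = concentration required for complete inhibition of growth.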

Tests used:
Assay in all cases: NCI tumour cell line growth inhibition, 48 h
[1] = test system: U251 CNS
[2] = test system: UACC-257 melanoma
[3] = test system: MDA-N
[4] = test system: LOX IMVI melanoma
[5] = test system: NCI-H460 lung
[6] = test system: OVCAR-5 ovarian
[7] = test system: HOP-62 NSCLC
[8] = test system: UACC-62 melanoma
[9] = test system: HCC-2998 colon
[10] = test system: SF-268 CNS
[11] = test system: RPMI-8226 leukemia
[12] = test system: CAKI-1 renal
[13] = test system: COLO 205 colon
[14] = test system: HCT-15 colon
[15] = test system: SK-MEL-2 melanoma
[16] = test system: RXF 393 renal
[17] = test system: IGROV1 ovarian
[18] = test system: SNB-19 CNS

Compound O=C1OCC2OC(=O)c3cc(O)c(O)c(O)c3-c3c(O)c(O)c(O)c4c3C(=O)OC(C2OC(=O)c2cc(O)c(O)c(O)c2-c2c1cc(O)c(O)c2O)C1OC(=O)c2c-4c(O)c(O)c(O)c2[C@@H]1C(O)C(O)C(O)C(O)CO (stereo partly specified) has a TGI [1] of 48.7 µM, a TGI [2] of 46.7 µM and a TGI [3] of 25.5 µM. It also gave a TGI [4] of 6.04 µM, a TGI [5] of 39.5 µM and a TGI [6] of 33 µM. The TGI [7] was 34 µM, the TGI [8] was 36.7 µM and the TGI [9] was 64.2 µM. The TGI [10] was 47.4 µM, the TGI [11] was 73.8 µM and the TGI [12] was 26.7 µM. The TGI [13] was 30.4 µM, the TGI [14] was 37.7 µM and the TGI [15] was 48.3 µM. It also gave a TGI [16] of 34.3 µM, a TGI [17] of 40.6 µM and a TGI [18] of over 100 µM.

Work on COC1=CC(=O)C2=C(C1=O)[C@H]1CC[C@]3(C)[C@@H](O)CC[C@H]3[C@@H]1CC2 yielded a TGI [1] of 31.3 µM, a TGI [2] of 30 µM and a TGI [3] of 32.8 µM. The TGI [4] was 35.8 µM, the TGI [5] was 35.8 µM and the TGI [6] was 33.6 µM. The TGI [7] was 29.7 µM, the TGI [8] was 31.2 µM and the TGI [9] was 42.8 µM. It also gave a TGI [10] of 31 µM, a TGI [11] of 44.4 µM and a TGI [12] of 57.4 µM. The TGI [13] was 22.5 µM, the TGI [14] was 31.9 µM and the TGI [15] was 26.8 µM. It also gave a TGI [16] of 46.5 µM, a TGI [17] of 44.7 µM and a TGI [18] of 73.2 µM.

For COc1ccc(C(=O)/C=C/c2ccc(O)c(O)c2)c(OC)c1, the TGI [1] was 16.6 µM, the TGI [2] was 15.3 µM and the TGI [3] was over 46.2 µM. For the same compound, the TGI [4] was 26.4 µM, the TGI [5] was 15.9 µM and the TGI [6] was 47.2 µM. It also gave a TGI [7] of 60.3 µM, a TGI [8] of 14.4 µM and a TGI [9] of 3.4 µM. It also gave a TGI [10] of over 52.6 µM, a TGI [11] of 15.8 µM and a TGI [12] of 34.5 µM. It also gave a TGI [13] of 28.8 µM, a TGI [14] of 24.3 µM and a TGI [15] of 9.82 µM. It also gave a TGI [16] of 39.2 µM, a TGI [17] of over 100 µM and a TGI [18] of 19.4 µM.

CCN(CC)CC1CCCCN1CC(=O)N1c2ccccc2C(=O)Nc2cccnc21 (stereo unspecified) gave a TGI [1] of over 100 µM, a TGI [2] of 75.2 µM and a TGI [3] of over 100 µM. It also gave a TGI [4] of 57.2 µM, a TGI [5] of over 100 µM and a TGI [6] of over 100 µM. It also gave a TGI [7] of over 100 µM, a TGI [8] of over 100 µM and a TGI [9] of over 100 µM. The TGI [10] was over 100 µM, the TGI [11] was 74.2 µM and the TGI [12] was over 100 µM. It also gave a TGI [13] of 64.6 µM, a TGI [14] of over 100 µM and a TGI [15] of over 100 µM. The TGI [16] was over 100 µM, the TGI [17] was over 100 µM and the TGI [18] was over 100 µM.

In the case of CC1(C)C=Cc2c(cc(O)c3c(=O)c4cc(Cl)ccc4[nH]c23)O1, the TGI [1] is reported as over 10 µM, the TGI [2] is reported as over 10 µM and the TGI [3] is reported as 8.58 µM. The TGI [4] was 8.11 µM, the TGI [5] was over 10 µM and the TGI [6] was 6.16 µM. For the same compound, the TGI [7] was over 10 µM, the TGI [8] was over 10 µM and the TGI [9] was over 10 µM. The TGI [10] was over 10 µM, the TGI [11] was 6.27 µM and the TGI [12] was over 10 µM. For the same compound, the TGI [13] was over 10 µM, the TGI [14] was over 10 µM and the TGI [15] was 9.75 µM. The TGI [16] was over 10 µM, the TGI [17] was over 10 µM and the TGI [18] was 6.4 µM.

COc1cc(/C=C/c2nc(NC(=S)Nc3ccccc3)nnc2C)cc(OC)c1OC gave a TGI [1] of over 100 µM, a TGI [2] of over 100 µM and a TGI [3] of over 100 µM. For the same compound, the TGI [4] was over 100 µM, the TGI [5] was 36.8 µM and the TGI [6] was over 100 µM. For the same compound, the TGI [7] was over 100 µM, the TGI [8] was 51.1 µM and the TGI [9] was 26.4 µM. The TGI [10] was over 100 µM, the TGI [11] was 67.8 µM and the TGI [12] was over 100 µM. The TGI [13] was 32.2 µM, the TGI [14] was 37.1 µM and the TGI [15] was 38.1 µM. It also gave a TGI [16] of 66.8 µM, a TGI [17] of 93.7 µM and a TGI [18] of over 100 µM.

O=C1CCCN1C(=O)CS(=O)(=O)c1ccccc1 showed a TGI [1] of over 100 µM, a TGI [2] of over 100 µM and a TGI [3] of over 100 µM. It also gave a TGI [4] of over 100 µM, a TGI [5] of over 100 µM and a TGI [6] of over 100 µM. It also gave a TGI [7] of over 100 µM, a TGI [8] of over 100 µM and a TGI [9] of over 100 µM. For the same compound, the TGI [10] was over 100 µM, the TGI [11] was over 100 µM and the TGI [12] was over 100 µM. The TGI [13] was over 100 µM, the TGI [14] was over 100 µM and the TGI [15] was over 100 µM. It also gave a TGI [16] of over 100 µM, a TGI [17] of over 100 µM and a TGI [18] of over 100 µM.

CN(C)c1ccc(NN=C2SC(=Nc3ccccc3)C(=Nc3ccccc3)S2)cc1 showed a TGI [1] of over 100 µM, a TGI [2] of over 100 µM and a TGI [3] of over 100 µM. It also gave a TGI [4] of over 100 µM, a TGI [5] of over 100 µM and a TGI [6] of over 100 µM. For the same compound, the TGI [7] was over 100 µM, the TGI [8] was over 100 µM and the TGI [9] was over 100 µM. For the same compound, the TGI [10] was over 100 µM, the TGI [11] was over 100 µM and the TGI [12] was over 100 µM. For the same compound, the TGI [13] was over 100 µM, the TGI [14] was over 100 µM and the TGI [15] was over 100 µM. For the same compound, the TGI [16] was over 100 µM, the TGI [17] was over 100 µM and the TGI [18] was over 100 µM.

In the case of CC(C)(C)c1cc2c(OC/C=C/c3ccccc3)c(c1)Cc1cc(C(C#N)(OC/C=C/c3ccccc3)OC/C=C/c3ccccc3)cc(c1OC/C=C\c1ccccc1)Cc1cc(C(C)(C)C)cc(c1OC/C=C/c1ccccc1)Cc1cc(C(C#N)(OC/C=C\c3ccccc3)OC/C=C/c3ccccc3)cc(c1OC/C=C\c1ccccc1)C2 (stereo unspecified), the TGI [1] is reported as over 100 µM, the TGI [2] is reported as over 100 µM and the TGI [3] is reported as over 100 µM. It also gave a TGI [4] of over 100 µM, a TGI [5] of over 100 µM and a TGI [6] of over 100 µM. For the same compound, the TGI [7] was over 100 µM, the TGI [8] was over 100 µM and the TGI [9] was over 100 µM. The TGI [10] was over 100 µM, the TGI [11] was over 100 µM and the TGI [12] was over 100 µM. The TGI [13] was over 100 µM, the TGI [14] was over 100 µM and the TGI [15] was over 100 µM. It also gave a TGI [16] of over 100 µM, a TGI [17] of over 100 µM and a TGI [18] of over 100 µM.

CCOC(=O)C1=NOC2(C=C(Br)C(=O)C(Br)=C2)C1 was tested, and the TGI [1] was 26.3 µM, the TGI [2] was 2.71 µM and the TGI [3] was 3.39 µM. For the same compound, the TGI [4] was 7.63 µM, the TGI [5] was 15 µM and the TGI [6] was 12.6 µM. For the same compound, the TGI [7] was 16.2 µM, the TGI [8] was 8.54 µM and the TGI [9] was 3.22 µM. For the same compound, the TGI [10] was 29.1 µM, the TGI [11] was 2.56 µM and the TGI [12] was 2.88 µM. For the same compound, the TGI [13] was 2.7 µM, the TGI [14] was 4.91 µM and the TGI [15] was 15 µM. The TGI [16] was 3.54 µM, the TGI [17] was 20.6 µM and the TGI [18] was 40 µM.

In the case of COc1c(Br)cc2c(c1OC)C(Br)CCC(Br)(Br)C2=O (stereo unspecified), the TGI [1] is reported as 5.91 µM, the TGI [2] is reported as 14.7 µM and the TGI [3] is reported as 0.684 µM. The TGI [4] was 1.58 µM, the TGI [5] was 8.92 µM and the TGI [6] was 13.6 µM. The TGI [7] was 4.81 µM, the TGI [8] was 13.1 µM and the TGI [9] was 16.6 µM. It also gave a TGI [10] of 4.37 µM, a TGI [11] of 6.06 µM and a TGI [12] of 8.3 µM. It also gave a TGI [13] of 4.1 µM, a TGI [14] of 1.63 µM and a TGI [15] of 4.4 µM. It also gave a TGI [16] of 1.82 µM, a TGI [17] of 5.76 µM and a TGI [18] of 14.1 µM.

N#CC1C(=O)NC23CCCCC2C1c1ccccc1O3 (stereo unspecified) gave a TGI [1] of over 100 µM, a TGI [2] of over 100 µM and a TGI [3] of over 100 µM. It also gave a TGI [4] of over 100 µM, a TGI [5] of over 100 µM and a TGI [6] of over 100 µM. The TGI [7] was over 100 µM, the TGI [8] was over 100 µM and the TGI [9] was over 100 µM. It also gave a TGI [10] of over 100 µM, a TGI [11] of over 100 µM and a TGI [12] of over 100 µM. It also gave a TGI [13] of over 100 µM, a TGI [14] of over 100 µM and a TGI [15] of over 100 µM. For the same compound, the TGI [16] was over 100 µM, the TGI [17] was over 100 µM and the TGI [18] was over 100 µM.
